We go through 5 molecules from ChEMBL document CHEMBL1201862, “PubChem BioAssay data set” (2004).

The source made the active and inactive calls.

Data set [1] deals with Intestinal-type alkaline phosphatase (Mus musculus, UniProt P24822). The experiment in a line: PubChem AID 488874. Type of data set: functional.
Data set [2] addresses T1, Intestinal-type alkaline phosphatase (Homo sapiens, UniProt P09923). The experiment in a line: human IAP activators, dose response, biochemical, luminescent, uHTS hits, set 2 (AID 488817).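 Note: potency of activators that raise enzyme activity.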 The format is functional.
Data set [3] concerns the target T1, Intestinal-type alkaline phosphatase. The data set can be described thus: human intestinal alkaline phosphatase activators, dose response, biochemical, luminescence, uHTS hits (AID 463120). The format is functional.
Data set [4] deals with T2, Alkaline phosphatase, tissue-nonspecific isozyme (Homo sapiens, UniProt P05186).
T2 sequence (P05186 whole entry): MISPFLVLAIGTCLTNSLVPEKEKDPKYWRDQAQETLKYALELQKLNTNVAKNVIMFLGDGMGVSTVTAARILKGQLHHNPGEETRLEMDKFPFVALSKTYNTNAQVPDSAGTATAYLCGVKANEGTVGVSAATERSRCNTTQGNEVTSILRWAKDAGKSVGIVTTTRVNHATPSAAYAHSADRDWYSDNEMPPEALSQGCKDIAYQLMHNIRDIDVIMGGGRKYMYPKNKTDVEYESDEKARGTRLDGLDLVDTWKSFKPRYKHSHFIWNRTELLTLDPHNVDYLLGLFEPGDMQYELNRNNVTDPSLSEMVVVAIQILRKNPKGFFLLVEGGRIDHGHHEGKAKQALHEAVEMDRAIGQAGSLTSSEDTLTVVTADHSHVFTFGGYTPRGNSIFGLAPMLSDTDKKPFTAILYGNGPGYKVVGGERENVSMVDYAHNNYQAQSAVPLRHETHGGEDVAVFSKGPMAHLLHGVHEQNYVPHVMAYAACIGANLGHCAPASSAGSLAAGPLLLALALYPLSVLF
The data set can be described thus: TNAP enzyme activators, dose response, selectivity assay for human IAP activator project, biochemical, TNAP isozyme, human IAP uHTS hits (AID 488886).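 Note: potency of compounds raising TNAP activity as a selectivity check on IAP activators.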 The format is functional.

Data set [5] in a line: microbe, parasite or virus in culture. Particulars: Mycobacterium tuberculosis. Type of data set: functional.
The target of another data set is Cytochrome P450 3A4 (Homo sapiens, UniProt P08684).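 Note: CYP3A4 tested as one member of a cytochrome P450 panel screen.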
Sequence of Cytochrome P450 3A4 (P08684 whole entry): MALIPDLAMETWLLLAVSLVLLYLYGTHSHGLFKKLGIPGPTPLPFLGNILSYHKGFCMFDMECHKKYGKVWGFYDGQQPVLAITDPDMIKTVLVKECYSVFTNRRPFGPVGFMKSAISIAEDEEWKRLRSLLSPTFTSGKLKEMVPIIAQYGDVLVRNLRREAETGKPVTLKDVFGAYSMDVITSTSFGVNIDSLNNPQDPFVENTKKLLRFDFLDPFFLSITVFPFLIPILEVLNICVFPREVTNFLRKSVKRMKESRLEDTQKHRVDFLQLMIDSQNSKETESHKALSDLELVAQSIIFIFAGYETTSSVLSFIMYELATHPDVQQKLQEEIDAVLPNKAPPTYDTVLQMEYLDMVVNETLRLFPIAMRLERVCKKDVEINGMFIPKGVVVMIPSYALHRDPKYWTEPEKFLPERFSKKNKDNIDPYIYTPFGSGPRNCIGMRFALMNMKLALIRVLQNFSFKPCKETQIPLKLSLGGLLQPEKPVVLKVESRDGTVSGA
The nature of data set [6]: M. tuberculosis growth inhibition, HTS (AID 449762). Type of data set: functional.
Data set [7] addresses T3, Zinc finger protein mex-5 (Caenorhabditis elegans, UniProt Q9XUB2).
T3 sequence (Q9XUB2 whole entry): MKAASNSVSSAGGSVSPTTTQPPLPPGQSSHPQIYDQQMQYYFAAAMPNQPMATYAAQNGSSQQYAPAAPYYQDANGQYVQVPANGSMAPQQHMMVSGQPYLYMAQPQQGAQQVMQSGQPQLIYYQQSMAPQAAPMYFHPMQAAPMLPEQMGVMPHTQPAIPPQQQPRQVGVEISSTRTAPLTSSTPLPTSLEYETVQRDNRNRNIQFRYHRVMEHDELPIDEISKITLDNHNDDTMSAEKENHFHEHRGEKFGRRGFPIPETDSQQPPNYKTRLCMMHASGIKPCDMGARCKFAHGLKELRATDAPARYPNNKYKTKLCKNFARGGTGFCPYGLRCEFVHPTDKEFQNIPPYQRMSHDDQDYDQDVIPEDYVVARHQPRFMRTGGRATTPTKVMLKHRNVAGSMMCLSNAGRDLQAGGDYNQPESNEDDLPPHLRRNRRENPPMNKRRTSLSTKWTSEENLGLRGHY
The experiment in a line: MEX-5/TCR-2 RNA interaction inhibitors, dose response, biochemical, C. elegans, fluorescence polarization (AID 1960). On the technique in general: Fluorescence polarisation rises when a labelled molecule tumbles more slowly, as on binding a larger partner.

The target in the next data set is T4, Hexokinase-1 (Homo sapiens, UniProt P19367).
T4 sequence (P19367 whole entry): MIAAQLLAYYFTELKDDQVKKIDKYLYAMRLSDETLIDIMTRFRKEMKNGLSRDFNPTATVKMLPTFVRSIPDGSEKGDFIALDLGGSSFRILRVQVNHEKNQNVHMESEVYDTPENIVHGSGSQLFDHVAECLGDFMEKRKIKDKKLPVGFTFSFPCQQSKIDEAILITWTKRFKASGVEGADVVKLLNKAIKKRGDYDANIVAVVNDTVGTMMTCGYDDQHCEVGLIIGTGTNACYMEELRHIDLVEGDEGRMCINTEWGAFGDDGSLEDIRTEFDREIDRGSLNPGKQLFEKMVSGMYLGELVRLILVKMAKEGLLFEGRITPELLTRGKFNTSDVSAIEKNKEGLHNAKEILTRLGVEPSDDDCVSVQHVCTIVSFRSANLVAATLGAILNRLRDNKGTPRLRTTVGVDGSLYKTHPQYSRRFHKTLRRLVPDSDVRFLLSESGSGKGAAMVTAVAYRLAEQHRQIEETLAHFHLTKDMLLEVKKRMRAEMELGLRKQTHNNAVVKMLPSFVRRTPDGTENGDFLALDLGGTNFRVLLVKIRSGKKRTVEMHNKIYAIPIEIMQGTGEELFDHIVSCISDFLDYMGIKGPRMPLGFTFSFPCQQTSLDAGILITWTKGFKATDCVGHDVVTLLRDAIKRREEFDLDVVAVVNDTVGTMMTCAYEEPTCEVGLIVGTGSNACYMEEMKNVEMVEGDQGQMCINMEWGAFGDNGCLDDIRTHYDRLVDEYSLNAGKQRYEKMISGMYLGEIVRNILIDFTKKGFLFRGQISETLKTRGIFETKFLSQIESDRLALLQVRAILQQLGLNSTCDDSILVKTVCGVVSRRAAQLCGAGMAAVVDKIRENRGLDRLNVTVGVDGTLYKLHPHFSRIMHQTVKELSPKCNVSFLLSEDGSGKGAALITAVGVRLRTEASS
The data set can be described thus: hexokinase 1 activators, dose response, selectivity assay for HKDC1 activator project, biochemical (AID 504762). The format is functional.

Data set [8] addresses Lysine-specific demethylase 4A (Homo sapiens, UniProt O75164). The data set can be described thus: JMJD2A histone demethylase inhibitors, dose response, selectivity assay for GASC-1 inhibitor project, biochemical, DELFIA europium, cherry-picked samples (AID 488840).
Data set [9] deals with T5, RNA-binding protein pos-1 (Caenorhabditis elegans, UniProt G5EF15).
T5 sequence (G5EF15 whole entry): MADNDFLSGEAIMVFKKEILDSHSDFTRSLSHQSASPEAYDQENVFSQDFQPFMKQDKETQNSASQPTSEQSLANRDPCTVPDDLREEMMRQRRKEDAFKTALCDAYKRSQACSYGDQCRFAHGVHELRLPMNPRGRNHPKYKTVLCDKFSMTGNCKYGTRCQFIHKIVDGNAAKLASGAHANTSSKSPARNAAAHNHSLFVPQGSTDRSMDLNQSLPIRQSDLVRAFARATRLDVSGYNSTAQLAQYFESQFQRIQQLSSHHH
The data set can be described thus: inhibitors of POS-1/mex-3 RNA binding, dose response, biochemical, fluorescence polarization (AID 1964).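 Note: purified POS-1 fused to maltose binding protein made in E. coli; potency of compounds blocking POS-1 binding to fluorescent RNA.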

Data set [10] deals with Lysine-specific demethylase 4C (Homo sapiens, UniProt Q9H3R0). The data set can be described thus: GASC-1 (JMJD2C) histone demethylase inhibitors, dose response, biochemical, DELFIA europium, cherry-picked samples (AID 488835). Type of data set: functional.
Sequence of Lysine-specific demethylase 4C (Q9H3R0 whole entry): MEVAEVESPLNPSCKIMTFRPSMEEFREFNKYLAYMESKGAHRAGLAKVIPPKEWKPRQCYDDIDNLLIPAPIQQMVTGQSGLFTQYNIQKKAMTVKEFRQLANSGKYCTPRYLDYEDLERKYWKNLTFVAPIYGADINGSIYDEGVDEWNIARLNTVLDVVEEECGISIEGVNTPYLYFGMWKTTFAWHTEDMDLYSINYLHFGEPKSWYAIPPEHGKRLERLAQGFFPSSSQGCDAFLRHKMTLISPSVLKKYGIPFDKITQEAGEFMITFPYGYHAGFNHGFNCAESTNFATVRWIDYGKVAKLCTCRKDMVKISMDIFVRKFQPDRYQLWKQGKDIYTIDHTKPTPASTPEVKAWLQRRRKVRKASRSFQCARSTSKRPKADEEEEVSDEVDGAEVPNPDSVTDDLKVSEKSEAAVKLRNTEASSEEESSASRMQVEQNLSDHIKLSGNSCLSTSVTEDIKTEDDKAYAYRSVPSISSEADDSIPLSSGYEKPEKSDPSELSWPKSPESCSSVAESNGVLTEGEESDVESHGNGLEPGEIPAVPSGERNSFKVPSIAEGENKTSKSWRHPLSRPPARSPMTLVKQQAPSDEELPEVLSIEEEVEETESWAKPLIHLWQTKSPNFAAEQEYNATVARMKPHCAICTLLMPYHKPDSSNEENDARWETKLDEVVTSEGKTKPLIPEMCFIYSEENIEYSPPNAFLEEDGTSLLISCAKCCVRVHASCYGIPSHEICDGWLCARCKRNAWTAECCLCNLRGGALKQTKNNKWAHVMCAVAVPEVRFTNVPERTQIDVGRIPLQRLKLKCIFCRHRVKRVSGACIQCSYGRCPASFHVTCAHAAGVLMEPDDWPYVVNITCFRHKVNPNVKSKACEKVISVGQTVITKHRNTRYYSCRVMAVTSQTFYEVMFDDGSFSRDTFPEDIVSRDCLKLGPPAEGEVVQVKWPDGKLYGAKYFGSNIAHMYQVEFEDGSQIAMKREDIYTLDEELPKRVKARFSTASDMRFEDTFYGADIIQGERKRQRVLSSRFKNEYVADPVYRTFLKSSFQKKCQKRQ
For a further data set, the target named is T6, Hexokinase HKDC1 (Homo sapiens, UniProt Q2TB90).
T6 sequence (Q2TB90 whole entry): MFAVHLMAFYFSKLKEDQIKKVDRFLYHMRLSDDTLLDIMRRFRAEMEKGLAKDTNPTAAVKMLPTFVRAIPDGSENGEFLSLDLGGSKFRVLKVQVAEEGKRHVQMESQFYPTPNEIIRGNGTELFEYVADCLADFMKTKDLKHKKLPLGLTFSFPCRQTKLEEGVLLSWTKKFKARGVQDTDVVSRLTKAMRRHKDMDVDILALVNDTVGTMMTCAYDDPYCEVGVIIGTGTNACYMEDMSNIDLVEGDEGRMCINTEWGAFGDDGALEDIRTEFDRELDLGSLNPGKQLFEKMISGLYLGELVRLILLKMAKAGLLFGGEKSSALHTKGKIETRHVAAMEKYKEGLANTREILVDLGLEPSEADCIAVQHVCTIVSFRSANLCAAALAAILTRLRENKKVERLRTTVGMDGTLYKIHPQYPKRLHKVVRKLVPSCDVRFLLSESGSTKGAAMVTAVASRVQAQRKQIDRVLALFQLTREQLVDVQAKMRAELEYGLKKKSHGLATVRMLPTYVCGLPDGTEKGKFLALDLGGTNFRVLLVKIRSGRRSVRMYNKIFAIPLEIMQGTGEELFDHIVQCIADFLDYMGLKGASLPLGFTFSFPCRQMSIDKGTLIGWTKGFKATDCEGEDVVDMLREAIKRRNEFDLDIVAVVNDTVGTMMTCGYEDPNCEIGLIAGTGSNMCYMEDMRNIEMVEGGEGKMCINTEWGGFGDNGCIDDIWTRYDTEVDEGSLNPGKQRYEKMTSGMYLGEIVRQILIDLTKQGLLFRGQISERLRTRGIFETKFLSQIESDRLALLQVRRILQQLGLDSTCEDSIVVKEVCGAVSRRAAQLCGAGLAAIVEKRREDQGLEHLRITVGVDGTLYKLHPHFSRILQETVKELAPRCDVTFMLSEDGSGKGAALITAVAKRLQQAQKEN
The data set can be described thus: HKDC1 hexokinase activators, dose response, biochemical, W721R variant (AID 504730). The format is functional.

Data set [11] deals with T7, Type-1 angiotensin II receptor (Homo sapiens, UniProt P30556).
T7 sequence (P30556 whole entry): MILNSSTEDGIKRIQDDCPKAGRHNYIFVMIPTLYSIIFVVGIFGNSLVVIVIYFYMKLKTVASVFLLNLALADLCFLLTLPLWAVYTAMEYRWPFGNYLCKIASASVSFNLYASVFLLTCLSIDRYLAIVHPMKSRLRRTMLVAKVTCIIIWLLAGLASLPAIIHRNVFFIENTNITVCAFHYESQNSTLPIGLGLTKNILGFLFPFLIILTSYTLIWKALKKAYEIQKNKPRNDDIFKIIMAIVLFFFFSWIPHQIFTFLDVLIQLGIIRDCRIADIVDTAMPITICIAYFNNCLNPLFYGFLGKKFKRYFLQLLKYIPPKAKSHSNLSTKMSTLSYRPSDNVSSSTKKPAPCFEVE
The experiment in a line: AT1 receptor antagonists, dose response, selectivity assay for APJ receptor antagonist project, cell-based, uHTS hits (AID 463214).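 Note: antagonist potency against angiotensin II stimulated AT1 response.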 The format is functional.

A further data set addresses Beta-galactosidase (Escherichia coli, UniProt Q8VNN2). The data set can be described thus: PubChem AID 485352. The format is functional.
The next data set concerns the target SUMO E1/E2 (Homo sapiens, UniProt P63279+Q9UBE0+Q9UBT2). The experiment in a line: SAR analysis of SUMOylation using HTRF in an in-Vitro dose response assay. [Related pubchem assays (depositor defined):AID2006, AID2011, AID2018, AID2069, AID2658]. Type of data set: functional. (In general: In TR-FRET formats the signal depends on donor and acceptor labels being close together.)

For a further data set, the system named is Candida albicans. The data set can be described thus: fluconazole resistance reversal in C. albicans, dose response, CaCi-2 strain, Alamar Blue, dry powder, set 4 (AID 488943). Type of data set: functional, organism-based.

T1 sequence (P09923 whole entry): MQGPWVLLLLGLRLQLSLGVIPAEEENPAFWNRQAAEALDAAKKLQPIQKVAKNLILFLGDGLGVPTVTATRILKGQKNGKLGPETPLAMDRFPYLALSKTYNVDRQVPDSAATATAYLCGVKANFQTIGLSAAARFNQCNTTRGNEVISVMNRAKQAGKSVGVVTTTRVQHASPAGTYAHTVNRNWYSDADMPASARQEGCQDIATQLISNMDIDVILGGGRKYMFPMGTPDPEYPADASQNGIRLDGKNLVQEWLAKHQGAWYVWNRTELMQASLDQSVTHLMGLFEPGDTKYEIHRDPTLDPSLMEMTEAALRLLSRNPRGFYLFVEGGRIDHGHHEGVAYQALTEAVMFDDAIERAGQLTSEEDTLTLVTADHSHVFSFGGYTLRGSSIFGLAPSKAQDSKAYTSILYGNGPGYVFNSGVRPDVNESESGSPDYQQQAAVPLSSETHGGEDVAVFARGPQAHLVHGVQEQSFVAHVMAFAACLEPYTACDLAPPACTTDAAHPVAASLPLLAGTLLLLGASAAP
Sequence of Beta-galactosidase (Q8VNN2 whole entry): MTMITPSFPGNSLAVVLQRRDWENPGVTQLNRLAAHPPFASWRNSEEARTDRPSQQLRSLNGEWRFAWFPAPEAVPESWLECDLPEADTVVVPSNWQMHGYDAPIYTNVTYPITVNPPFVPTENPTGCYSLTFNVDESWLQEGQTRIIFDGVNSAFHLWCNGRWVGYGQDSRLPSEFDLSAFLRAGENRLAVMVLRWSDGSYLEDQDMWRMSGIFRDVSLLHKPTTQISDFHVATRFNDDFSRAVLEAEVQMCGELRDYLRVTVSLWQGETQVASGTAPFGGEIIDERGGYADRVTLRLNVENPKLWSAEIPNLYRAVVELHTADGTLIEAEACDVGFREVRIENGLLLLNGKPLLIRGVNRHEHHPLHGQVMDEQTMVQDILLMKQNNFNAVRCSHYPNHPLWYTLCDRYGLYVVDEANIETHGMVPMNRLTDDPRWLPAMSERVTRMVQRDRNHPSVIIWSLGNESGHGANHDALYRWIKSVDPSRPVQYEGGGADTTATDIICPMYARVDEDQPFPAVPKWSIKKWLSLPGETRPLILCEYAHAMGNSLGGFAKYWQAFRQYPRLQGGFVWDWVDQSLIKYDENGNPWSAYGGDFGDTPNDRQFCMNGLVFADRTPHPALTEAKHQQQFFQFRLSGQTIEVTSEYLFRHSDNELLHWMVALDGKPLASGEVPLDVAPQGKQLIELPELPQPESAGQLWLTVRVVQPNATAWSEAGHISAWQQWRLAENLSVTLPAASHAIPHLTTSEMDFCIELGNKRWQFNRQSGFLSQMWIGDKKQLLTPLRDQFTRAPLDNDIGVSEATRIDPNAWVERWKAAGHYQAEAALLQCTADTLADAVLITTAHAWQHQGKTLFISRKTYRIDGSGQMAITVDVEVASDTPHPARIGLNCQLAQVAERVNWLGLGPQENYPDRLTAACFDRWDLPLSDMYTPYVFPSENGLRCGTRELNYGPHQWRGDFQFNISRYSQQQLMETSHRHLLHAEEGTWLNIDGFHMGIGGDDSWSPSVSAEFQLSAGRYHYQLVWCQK
Sequence of Lysine-specific demethylase 4A (O75164 whole entry): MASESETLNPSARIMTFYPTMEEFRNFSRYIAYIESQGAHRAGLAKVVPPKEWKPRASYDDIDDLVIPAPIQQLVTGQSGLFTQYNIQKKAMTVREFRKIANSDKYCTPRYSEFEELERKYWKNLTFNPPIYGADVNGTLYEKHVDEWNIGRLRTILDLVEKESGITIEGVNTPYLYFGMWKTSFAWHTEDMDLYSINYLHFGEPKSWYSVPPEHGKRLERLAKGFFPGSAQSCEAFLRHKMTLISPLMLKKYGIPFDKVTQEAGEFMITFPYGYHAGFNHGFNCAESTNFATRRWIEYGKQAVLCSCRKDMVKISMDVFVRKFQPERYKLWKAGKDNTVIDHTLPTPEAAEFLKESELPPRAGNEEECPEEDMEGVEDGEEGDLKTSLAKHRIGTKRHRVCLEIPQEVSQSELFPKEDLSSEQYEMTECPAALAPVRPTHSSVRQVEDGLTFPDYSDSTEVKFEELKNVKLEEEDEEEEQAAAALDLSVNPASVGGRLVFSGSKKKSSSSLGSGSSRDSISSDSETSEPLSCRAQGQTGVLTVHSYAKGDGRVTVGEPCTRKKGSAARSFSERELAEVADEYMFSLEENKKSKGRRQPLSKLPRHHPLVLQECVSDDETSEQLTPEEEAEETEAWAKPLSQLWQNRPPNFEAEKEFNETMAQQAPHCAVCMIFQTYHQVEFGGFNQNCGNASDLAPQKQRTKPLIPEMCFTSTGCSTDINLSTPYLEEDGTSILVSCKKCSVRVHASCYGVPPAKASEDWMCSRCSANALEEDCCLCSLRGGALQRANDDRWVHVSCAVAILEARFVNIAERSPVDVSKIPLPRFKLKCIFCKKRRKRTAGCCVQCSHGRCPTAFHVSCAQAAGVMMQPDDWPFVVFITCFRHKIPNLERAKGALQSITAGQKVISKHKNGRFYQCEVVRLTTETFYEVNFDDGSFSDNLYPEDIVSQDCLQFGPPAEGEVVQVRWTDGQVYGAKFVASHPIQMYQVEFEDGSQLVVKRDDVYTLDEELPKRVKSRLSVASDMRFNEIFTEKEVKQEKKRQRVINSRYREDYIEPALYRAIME
Sequence of Intestinal-type alkaline phosphatase (Mus musculus, UniProt P24822) (P24822 whole entry): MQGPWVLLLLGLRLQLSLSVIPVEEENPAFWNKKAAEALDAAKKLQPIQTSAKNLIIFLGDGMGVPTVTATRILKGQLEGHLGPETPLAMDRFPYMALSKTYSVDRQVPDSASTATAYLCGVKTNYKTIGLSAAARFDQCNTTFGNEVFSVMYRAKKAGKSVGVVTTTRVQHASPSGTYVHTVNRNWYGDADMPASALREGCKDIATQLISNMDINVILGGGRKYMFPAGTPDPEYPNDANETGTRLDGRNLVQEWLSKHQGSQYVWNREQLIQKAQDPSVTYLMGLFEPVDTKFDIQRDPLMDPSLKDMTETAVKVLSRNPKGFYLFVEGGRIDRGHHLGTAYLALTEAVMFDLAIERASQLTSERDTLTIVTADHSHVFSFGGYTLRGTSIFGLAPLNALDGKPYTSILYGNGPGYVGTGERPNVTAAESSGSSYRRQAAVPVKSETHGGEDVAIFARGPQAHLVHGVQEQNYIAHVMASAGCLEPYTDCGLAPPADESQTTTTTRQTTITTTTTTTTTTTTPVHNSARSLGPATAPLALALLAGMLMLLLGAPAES

`O=C(Cc1ccc(Cl)c(Cl)c1)NNC(=S)NCC1CCCO1` (configuration not stated): the IC50 (as a rule, the concentration that gives 50% inhibition) in data set [1] is 49.6 µM (active). For the same molecule, the values for the EC50 in data set [2], in [3] and in data set [4] were 17.5 µM (active), 14.3 µM (active) and 20.2 µM (active), respectively.

On to `COC(=O)C(Cc1ccc(OC(=O)c2ccc(C(F)(F)F)cc2)cc1)N1Cc2ccccc2C1=O` (configuration not stated), for which the CC50 in data set [5] was 37.4 µM (active). Further, at Cytochrome P450 3A4, the AC50 (usually the midpoint of the concentration-response curve, whichever way the signal moves) is reported as “inconclusive”. Further, in [6], the half-inhibitory concentration (IC50) is > 100 µM (active).

Take `CC(=O)C1=C(c2ccccc2)N(C(C)=O)n2c(C)nnc2S1`: the EC50 (usually the concentration that produces a half-maximal response) in data set [7] is 10.7 µM (active); on Hexokinase-1, 20.8 µM (inactive); in data set [9], 191 µM (active); on Hexokinase HKDC1 it was 26 µM (inactive); on Beta-galactosidase, 16.8 µM (active). For the same molecule, the half-maximal activity concentration (AC50) in data set [8] is 56.3 µM (active); in data set [10], 0.8 µM (active). The IC50 in data set [11] is 11.3 µM (active).

As for `S=c1[nH]nc(-c2cc(-c3ccccc3)[nH]n2)n1N=Cc1ccc(Br)s1`, on SUMO E1/E2, the half-inhibitory concentration (IC50) is 11.3 µM (active).

As for `Clc1ccc2c(N3CCNCC3)ccnc2c1`, the AC50 in the data set with Candida albicans was 21.7 µM (active).
